The values that follow come from patent publication US20240165144A1, “COMPOSITIONS AND METHODS FOR MODULATING INNATE IMMUNE SIGNALING PATHWAYS” (Dana-Farber Cancer Institute, Inc., priority 2019, published 2024).

The subject of the assay is cGAS-STING signaling. Kind of assay: interferon reporter assay with transfected polar cell extracts. The format is cell-based. To be noted: iterative HPLC purification on 3 columns; single peak at retention time 24.5 minutes; FIG. 3. From the text:
FIG. 1A-FIG. 1B—FIG. 1A cGAS is an innate immune signaling enzyme that generates cyclic GMP-AMP in response to cytosolic DNA, image adapted from (7); FIG. 1B.
Applicants then transfected these extracts into the assay that was used to measure the effects of MB21D2 expression on interferon signaling (FIG. 1B workflow at top).
In general terms: A reporter such as luciferase makes a cellular process visible.

For the molecule `Nc1ncnc2c1ncn2[C@@H]1O[C@H](CO)[C@@H](O)[C@H]1OP(=O)([O-])OP(=O)([O-])OP(=O)([O-])[O-].[Na+].[Na+].[Na+].[Na+]` [2′-ATP, Adenosine 2′-Triphosphate, Sodium Salt], the “anti-STING activity of HPLC-purified fraction” value is listed as “anti-STING activity was localized to a single peak”.
